Drawing on patent US7897630B2, “5-aryl isoxazolines for controlling invertebrate pests” (E.I. du Pont de Nemours and Company, priority 2005, dated 2011), this text covers flea mortality for 1 compound.

The test system of this assay is cat flea (Ctenocephalides felis Bouche). Put plainly: Test H: control of cat flea on orally dosed CD-1 mouse. It is filed as in vivo. Particulars: oral 10 mg/kg, fleas applied 2 hours after dosing, evaluated 48 hours after flea application. The protocol:
For evaluating control of the cat flea (Ctenocephalides felis Bouche), a CD-1® mouse (about 30 g, male, obtained from Charles River Laboratories, Wilmington, Mass.) was orally dosed with a test compound in an amount of 10 mg/kg solubilized in propylene glycol/glycerol formal (60:40). Two hours after oral administration of the test compound, approximately 8 to 16 adult fleas were applied to each mouse. The fleas were then evaluated for mortality 48 hours after flea application to the mouse.

Consider `CSc1ccc(C2=NOC(c3cc(Cl)cc(Cl)c3)(C(F)(F)F)C2)cc1Br` (racemic) [Compound 205], for which the flea mortality is recorded as ≥ 20%.
